From patent US20100015174A1, “METHOD TO CONTROL DENGUE VIRUSES IN HUMANS BY PICOLINIC ACID AND DERIVATIVES THEREOF” (priority 2008, published 2010)
≈ marks a conversion by molar mass, not a printed value. Like-named read-outs stand apart in the source and are kept apart here.

Columns and labels:
[1] = system: human hepatitis B virus (HBV); assay: HBV DNA by real-time PCR after 9-day treatment of HepG2.2.15 cells; format: cell-based; details: 9 days; for EC50: 216 h, HepG2.2.15 cells, read-out: overall EC50 against HBV; for inhibition at 60 µg/mL / inhibition at 250 µg/mL: HepG2.2.15, 216 h; for inhibition at 60 µg/mL: 60 ug/mL; for inhibition at 250 µg/mL: 250 ug/mL
Experimental: Here we evaluate the antiviral efficacy of picolinic acid and fusaric acid against human hepatitis B virus (HBV). HepG2.2.15 cells, a cell line that was stably transfected with HBV genome was used to study the antiviral effects of PA and FA against HBV. HepG2.2.15 cells were cultured under standard conditions. HepG2.2.15 cells were seeded in a 96-well plate at 2×10^4 cells/well and grown for 24 hours. The medium was replaced with 100 uL of medium containing PA at increasing concentrations (0, 10, 100, 250, and 500 ug/mL). The concentrations of FU used were 0, 1, 10, 30, 60, and 100 ug/mL. The cells were incubated at 37° C. for 9 days. The control medium and the medium containing the antivirals were changed every 24 hours. At day 9, the culture medium containing the released HBV virions was collected, the cells washed with PBS, and lysed with lysis buffer. All samples were stored at −70° C. until analyzed.
HBV DNA from drug-treated […] cell culture medium and cell lysates was extracted using QIAamp DNA mini kit, according to manufacturer's specifications.
PCR reaction was performed in 20 uL, comprising the following compounds: dH2O; 25 mM MgCl2; 10 uM sense primer; 10 uM antisense primer; LightCycler Probe 1 (fluorescent-labeled, 5 uM); LightCycler Probe 2 (LC Red 640-labeled, 10 uM); LC FastStart DNA Master Hyb Probes; and Uracil DNA glycosylase (1 uL).
PCR mix was aliquoted and 5 uL DNA template was then added to the PCR mix. A range of HBV plasmid DNA (1×10^8, 1×10^7, 1×10^6, [ . . . ], 1×10^2, 25 copies) were used as standards for quantitative analysis.
To study the antiviral activities of PA and FA against HBV, HepG2.2.15 cells were incubated with increasing concentrations of test compounds for 9 days with medium change daily. At day 9, the medium containing secreted HBV virions was collected and used for extraction of extracellular virus DNA. The cells were lysed by 0.5% SDS and used for extraction of intracellular virus DNA. DNA was extracted using Qiagen column and then quantitatively detected by real-time PCR assay.

BVDV Trangie strain = assay: BVDV virus yield reduction in MDBK cells (immunoperoxidase staining); format: cell-based, Bovine Viral Diarrhea Virus; details: 3 days
Experimental: BVDV Trangie strain, a well characterized non-cytopathic Australian isolate, was used in this study. The virus was cultured in MDBK cells (ATCC), and titred by immunoperoxidase staining.
80% confluent MDBK cells were infected with BVDV at a moi of 0.01 at 37° C. for 1 h. After viral inoculums was removed, Infected cells were washed with PBS and then incubated with culture medium containing PA at concentrations of 0, 10, 100, 250, 500, and 1000 ug/mL or FA at concentrations of 0, 1, 10, 30, 60, and 100 ug/mL at 37° C. for 3 days. The culture medium was then collected and stored at −70° C. The cells were harvested by one frozen/thawed cycle and centrifugation to pellet debris. The supernatant was collected and stored at −70° C.
PA of FA-treated cultures were 10-fold serially diluted, 50 uL of each dilution was added to 80% confluent MDBK cells in a 96-well plate, and incubated at 37° C. for 1 h. The innoculum was removed by washing with PBS once. The Infected cells were covered with 200 uL of 0.5% methylcellulose in culture medium and incubated at 37° C. for 2 days. After washing with PBS, the cells were fixed with 200 uL of 5% formalin in PBS for 10 min at room temperature. Subsequently, they were washed with 0.05% Tween −20/dH2O three times. Then, the cells were incubated with 50 uL mixture of three monoclonal antibodies against BVDV NS3 for 80 min at 37° C. in a humidified box. The cells were then washed as above and incubated with 50 uL of rabbit anti-mouse IgG Peroxidase-conjugate (DAKO) diluted 1:200 in 1% gelatin/PBS for 90 min at 37° C. in a humidified box. After final washes as described above, 200 uL of 3-amino-9-ethyl-carbazole was added to each well and incubated at room temperature for 30 min until the cells were stained.
The BVDV closely resembles HCV persistent Infection. After Infection with BVDV cultured MBDK were treated with different concentrations of PA or FA for 3 days. The antiviral effect was determined by virus yield reduction assays (i.e. staining using monoclonal antibodies against NS3, or titration of intracellular and extracellular virus by immunoperoxidase staining.

[2] = system: certain lymphomas, and viral diseases such as Herpes simplex labialis, herpes zoster and papilloma viruses; assay: Systemic picolinic acid capsules in humans; format: in vivo; details: 00 gelatin capsules at 500 mg per capsule
From the text: A systemic preparation of picolinic acid, its derivatives or analogs, containing approximately 1% to 100% active ingredient, may be administered orally, intravenously, intramuscularly or by any acceptable route for the treatment of viral systemic infections such as Dengue. […] Likewise, an injectable form may be prepared.

J2 retrovirus = details: GG2EE transformed macrophages; cited from earlier work
[3] = read-out: inhibition of intracellular HBV DNA
[4] = read-out: inhibition of released HBV DNA

`CCCCc1ccc(C(=O)O)nc1` [FA, fusaric acid] gave an EC50 [1] of over 60 µg/mL, an inhibition at 60 µg/mL [1, 3] of 28% and an inhibition at 60 µg/mL [1, 4] of 76.5%. The BVDV virus yield (BVDV Trangie strain; FA 1 μg/ml) was 2.4 × 10^5 (pfu/ml), the “BVDV virus yield, % of control” value (BVDV Trangie strain; FA 1 μg/ml) was 80.0 % of control and the BVDV virus yield (BVDV Trangie strain; FA 10 μg/ml) was 1.8 × 10^5 (pfu/ml). For the same molecule, the “BVDV virus yield, % of control” value (BVDV Trangie strain; FA 10 μg/ml) was 60.0 % of control, the BVDV virus yield (BVDV Trangie strain; FA 30 μg/ml) was 2.5 × 10^5 (pfu/ml) and the “BVDV virus yield, % of control” value (BVDV Trangie strain; FA 30 μg/ml) was 83.3 % of control. The BVDV virus yield (BVDV Trangie strain; FA 60 μg/ml) was 1.5 × 10^5 (pfu/ml), the “BVDV virus yield, % of control” value (BVDV Trangie strain; FA 60 μg/ml) was 50.0 % of control and the “activity against BVDV” value (BVDV Trangie strain; MDBK cells) was “active”.

With `O=C(O)c1ccccn1` [PA, picolinic acid] the EC50 [1] was about 139 µg/mL (≈ 1130 µM), the inhibition at 250 µg/mL [1, 3] was 79.4% and the inhibition at 250 µg/mL [1, 4] was 72.3%. For the same molecule, the “reduction of BVDV virus yield” value (BVDV Trangie strain; 250 ug/mL) was 76%, the EC50 (BVDV Trangie strain; Bovine viral diarrhea virus isolates and strains, 72 h, MDBK cells, read-out: EC50 against BVDV) was 60 µg/mL (≈ 487 µM) and the “activity against BVDV” value (BVDV Trangie strain; MDBK cells) was “active”. For the same molecule, the BVDV virus yield (BVDV Trangie strain; PA 10 μg/ml) was 3.2 × 10^5 (pfu/ml), the “BVDV virus yield, % of control” value (BVDV Trangie strain; PA 10 μg/ml) was 78.0 % of control and the BVDV virus yield (BVDV Trangie strain; PA 100 μg/ml) was 2.5 × 10^5 (pfu/ml). The “BVDV virus yield, % of control” value (BVDV Trangie strain; PA 100 μg/ml) was 61.0 % of control, the BVDV virus yield (BVDV Trangie strain; PA 250 μg/ml) was 1.0 × 10^5 (pfu/ml) and the “BVDV virus yield, % of control” value (BVDV Trangie strain; PA 250 μg/ml) was 24.4 % of control. The BVDV virus yield (BVDV Trangie strain; PA 500 μg/ml) was 0.35 × 10^5 (pfu/ml), the “BVDV virus yield, % of control” value (BVDV Trangie strain; PA 500 μg/ml) was 8.5 % of control and the “control of certain lymphomas and viral diseases in humans” value [2] was “effective”. The J2 retrovirus expression (J2 retrovirus) was “not affected”.
